According to patent publication US4794118A, “1,4-benzodioxane derivatives” (Eisai Co., Ltd., priority 1985, dated 1988):

How the values were obtained:
coronary blood flow = experiment: Effects on the coronary blood flow in anesthetized open-chest dogs; type: in vivo, mongrel dogs; conditions: for Max. increase in coronary blood flow: anesthetized open-chest dogs
Description: Effects on the coronary blood flow in anesthetized open-chest dogs
Mongrel dogs of either sex weighing 9-14 kg were subjected to inhalation anesthesia with enflurane under artificial respiration. […] Test compounds were administered cumulatively at intervals of 10 minutes through a catheter inserted into the left femoral vein.

[1] = system: spontaneously hypertensive rats (SHR); experiment: Hypotensive effects in spontaneously hypertensive rats (SHR) under anesthesia; type: in vivo, rat (SHR); conditions: anesthetized SHR
Description: Hypotensive effects in spontaneously hypertensive rats (SHR) under anesthesia
Male SHR of 20 weeks of age or older were anesthetized with sodium pentobarbital (40 mg/kg, i.p.). The carotid artery and jugular vein were cannulated. Blood pressure was recorded from the carotid artery on a polygraph via a pressure transducer. Test compounds were dissolved in a solution containing 0.9% NaCl and 1% Tween 80 and administered either intravenously into the jugular vein or intraduodenally through a cannula inserted into the duodenum.
As a representative of this invention, compound A (8-hydroxy-2-nitrato-methyl-7-nitro-1,4-benzodioxane) was chosen.

Acute toxicity in mice = conditions: mouse, in vivo
Description: Acute toxicity in mice was investigated with respect to 8-hydroxy-2-nitratomethyl-7-nitro-1,4-benzodioxane. […] A similar experiment was also conducted with an intravenous administration of NG.

[2] = system: arterial and venous systems; experiment: Effects on the arterial and venous systems in anesthetized open-chest dogs; type: in vivo, mongrel dogs; conditions: for Max. change in mean blood pressure at diastole, Aortic / Max. change in mean blood pressure at diastole, Pulmonary: anesthetized open-chest dogs
Description: Effects on the arterial and venous systems in anesthetized open-chest dogs
Mongrel dogs of either sex, weighing 12-16 kg were subjected to inhalation anesthesia with enflurane under artificial respiration. The dogs were subjected to thoracotomy through the fourth right intercostal wall and catheters were inserted into the thoracic aorta and right pulmonary artery. The aortic and pulmonary blood pressures were measured by means of cathether tip-type piezoelectric transducers.
Test compounds were cumulatively administered with intervals of 30 minutes either intravenously or intraduodenally through catheters placed in the left femoral vein and duodenum.

[3] = intravenous administration, dogs
[4] = intravenous, dogs, vs nicorandil

SMILES: O=[N+]([O-])OCC1COc2ccc([N+](=O)[O-])c(O)c2O1 (stereo not drawn) [Compound A, 8-hydroxy-2-nitratomethyl-7-nitro-1,4-benzodioxane]
- Max. increase in coronary blood flow (coronary blood flow; 1 μg/Kg, intravenous): 52.0%
- Max. increase in coronary blood flow (coronary blood flow; 3 μg/Kg, intravenous): 84.7%
- Max. increase in coronary blood flow (coronary blood flow; 10 μg/Kg, intravenous): 127.6%
- dose range causing a marked and dose-dependent increase in coronary blood flow (coronary blood flow; [3]): 0.001 to 0.01 mg/kg
- effect on the coronary flow, potency relative to NG (coronary blood flow; intravenous, dogs, vs NG): about 3 times
- minimal effective dose ([1]; Rattus norvegicus, intravenous administration, read-out: dose as small as which caused a marked hypotension): 0.0003 mg/kg
- hypotension ([1]; intraduodenal administration): dose-dependent hypotension
- hypotensive potency relative to ISDN ([1]; intraduodenal, vs ISDN): ~30 times
- hypotensive potency relative to NG ([1]; intraduodenal, vs NG): ~10 times
- hypotensive potency relative to nicorandil ([1]; intraduodenal, vs nicorandil): about 5 times
- potency to cause 30% decrease in mean aortic pressure relative to ISDN ([1]; intravenous, vs ISDN): 250 times
- potency to cause 30% decrease in mean aortic pressure relative to NG ([1]; intravenous, vs NG): 5 times
- potency to cause 30% decrease in mean aortic pressure relative to nicorandil ([1]; intravenous, vs nicorandil): 300 times
- LD50 (Acute toxicity in mice; intravenous administration): 200 to 250 mg/kg
- LD50 (Acute toxicity in mice; oral administration): 500 to 1000 mg/kg
- Max. change in mean blood pressure at diastole, Aortic ([2]; i.d, 30 μg/Kg): -2 mm/Hg
- Max. change in mean blood pressure at diastole, Pulmonary ([2]; i.d, 30 μg/Kg): -1.5 mm/Hg
- Max. change in mean blood pressure at diastole, Aortic ([2]; i.d, 100 μg/Kg): -15 mm/Hg
- Max. change in mean blood pressure at diastole, Pulmonary ([2]; i.d, 100 μg/Kg): -2.5 mm/Hg
- Max. change in mean blood pressure at diastole, Aortic ([2]; i.d, 300 μg/Kg): -22 mm/Hg
- Max. change in mean blood pressure at diastole, Pulmonary ([2]; i.d, 300 μg/Kg): -3.5 mm/Hg
- Max. change in mean blood pressure at diastole, Aortic ([2]; i.v, 1 μg/Kg): -23 mm/Hg
- Max. change in mean blood pressure at diastole, Pulmonary ([2]; i.v, 1 μg/Kg): -2.5 mm/Hg
- Max. change in mean blood pressure at diastole, Aortic ([2]; i.v, 3 μg/Kg): -39.2 mm/Hg
- Max. change in mean blood pressure at diastole, Pulmonary ([2]; i.v, 3 μg/Kg): -3.2 mm/Hg
- Max. change in mean blood pressure at diastole, Aortic ([2]; i.v, 10 μg/Kg): -44.2 mm/Hg
- Max. change in mean blood pressure at diastole, Pulmonary ([2]; i.v, 10 μg/Kg): -5.3 mm/Hg
- reductions in aortic and pulmonary blood pressures ([2]; intraduodenal administration, dogs): dose-dependent reductions in aortic and pulmonary blood pressures
- potency (reductions in aortic and pulmonary blood pressures) relative to NG ([2]; intraduodenal, dogs, vs NG): about 3 times
- reduction of aortic and pulmonary blood pressure [2, 3]: reduced aortic and pulmonary blood pressure dose-dependently
- vasodilating effect on the arterial system (reduction in aortic blood pressure) relative to nicorandil [2, 4]: about 3 times
- vasodilating effect on the venous system (reduction in pulmonary blood pressure) relative to nicorandil [2, 4]: about 3 times

SMILES: O=[N+]([O-])OCC(CO[N+](=O)[O-])O[N+](=O)[O-] [NG, nitroglycerin]
- Max. increase in coronary blood flow (coronary blood flow; 3 μg/Kg, intravenous): 31.3%
- Max. increase in coronary blood flow (coronary blood flow; 10 μg/Kg, intravenous): 79.7%
- Max. increase in coronary blood flow (coronary blood flow; 30 μg/Kg, intravenous): 165.0%
- LD50 (Acute toxicity in mice; intravenous administration): 10 to 15 mg/kg
- Max. change in mean blood pressure at diastole, Aortic ([2]; i.d, 30 μg/Kg): -1.7 mm/Hg
- Max. change in mean blood pressure at diastole, Pulmonary ([2]; i.d, 30 μg/Kg): -0.7 mm/Hg
- Max. change in mean blood pressure at diastole, Aortic ([2]; i.d, 100 μg/Kg): -3.3 mm/Hg
- Max. change in mean blood pressure at diastole, Pulmonary ([2]; i.d, 100 μg/Kg): -1 mm/Hg
- Max. change in mean blood pressure at diastole, Aortic ([2]; i.d, 300 μg/Kg): -10 mm/Hg
- Max. change in mean blood pressure at diastole, Pulmonary ([2]; i.d, 300 μg/Kg): -1.7 mm/Hg
- Max. change in mean blood pressure at diastole, Aortic ([2]; i.v, 3 μg/Kg): -21.7 mm/Hg
- Max. change in mean blood pressure at diastole, Pulmonary ([2]; i.v, 3 μg/Kg): -0.8 mm/Hg
- Max. change in mean blood pressure at diastole, Aortic ([2]; i.v, 10 μg/Kg): -33.3 mm/Hg
- Max. change in mean blood pressure at diastole, Pulmonary ([2]; i.v, 10 μg/Kg): -3.0 mm/Hg
- Max. change in mean blood pressure at diastole, Aortic ([2]; i.v, 30 μg/Kg): -40.0 mm/Hg
- Max. change in mean blood pressure at diastole, Pulmonary ([2]; i.v, 30 μg/Kg): -3.7 mm/Hg

SMILES: O=C(NCCO[N+](=O)[O-])c1cccnc1 [Nicorandil, N-[2-(nitroxy)ethyl]-3-pyridinecarboxamide]
- Max. change in mean blood pressure at diastole, Aortic ([2]; i.v, 30 μg/Kg): -10.3 mm/Hg
- Max. change in mean blood pressure at diastole, Pulmonary ([2]; i.v, 30 μg/Kg): -1 mm/Hg
- Max. change in mean blood pressure at diastole, Aortic ([2]; i.v, 100 μg/Kg): -18.6 mm/Hg
- Max. change in mean blood pressure at diastole, Pulmonary ([2]; i.v, 100 μg/Kg): -1.5 mm/Hg
- Max. change in mean blood pressure at diastole, Aortic ([2]; i.v, 300 μg/Kg): -50.9 mm/Hg
- Max. change in mean blood pressure at diastole, Pulmonary ([2]; i.v, 300 μg/Kg): -2.1 mm/Hg
